Laboratory results from US20160279135A1, “THERAPIES FOR TREATING MYELOPROLIFERATIVE DISORDERS” (Gilead Sciences, Inc., priority 2013, published 2016).
Values joined by “and” are separate entries in the source; they are usually repeats but may differ in a detail not shown here. Equal entries are not always repeated.

What was measured:
pS6 Ser235/236 = test: Western blot of S6 phosphorylation in UT-7/TPO cells; type: cell-based; settings: 2 h, then TPO 50 ng/mL 10 min, vs vehicle
Description: (§1) In addition, Compound B was examined for the effects on the PI3K signaling pathway by determining the levels of AKT and S6 phosphorylation with or without TPO activation. Two cell lines, BaF3/MPL and UT-7/TPO sensitive or responsive to TPO activation were used. The cells were starved (i.e. growing on medium having less FBS) in […] FBS/RPMI for two hours before treated with 0.1, 1.0, or 2.0 μM of Compound B or vehicle (0.1% DMSO in RPMI) for 2 hours at 37° C. To examine the TPO-activated phosphorylation, the cells were then treated or activated with 50 ng/mL of human recombinant TPO (Peprotech) for 10 minutes at 37° C. The TPO activation or treatment may reflect the conditions in diseased cells as the PI3K pathway is activated by TPO in myelofibrosis. After treating with compound and/or TPO, the cells were collected, lysed by lysis buffer (Cell Signaling), separated by SDS-PAGE, and analyzed by the Western blot using antibodies specific to p-AKT Ser473 or pS6 Ser235/236 (Cell Signaling). The phosphorylation levels in treated cells were calculated and compared to those of untreated cells (i.e. vehicle as negative control).

p-AKT Ser473 [1] = test: Western blot of AKT phosphorylation in UT-7/TPO cells; type: cell-based; settings: 2 h, then TPO 50 ng/mL 10 min, vs vehicle
Description: as §1

pS6RP Ser235/236 = test: flow cytometry of S6RP phosphorylation in CD34+ progenitor cells from MF patients; type: cell-based, human; settings: for normalized percentage of TPO-activated S6RP phosphorylation (p-S6RP): 2.0 μM, then TPO, one value per patient, TPO-treated vehicle = 100
Description: (§2) In this example, PBMCs were isolated from whole blood of myelofibrosis (MF) patients who had not received treatments (i.e. naïve patients) or received ruxolitinib (i.e. rux-treated patients). The cells were treated with 0.02, 0.2, or 2.0 μM of Compound B or vehicle (0.1% DMSO in 0.1% FBS/RPMI) for 2 hours at 37° C. The cells were then fixed, permeabilized, and stained for FACS analysis. Antibodies specific to p-AKT Ser473 and pS6RP Ser235/236 were used to detect AKT phosphorylation (p-AKT) and S6RP phosphorylation (p-S6RP) in CD34^+/CD3^−/CD14^−/CD19/CD66^− (BD Biosciences) gated cells using flow cytometry. The percentage of basal (i.e. untreated with TPO) AKT and S6RP phosphorylation were normalized to vehicle control (i.e. “no TPO” values shown in Table 2). A two-tailed paired t-test (GraphPad Prism) was used to calculate p-values. Values of p<0.05 were considered significant.
(§3) Also, PBMC cells were treated with Compound B and with TPO as described above. The percentage of TPO-activated AKT and S6RP phosphorylation were normalized to those of TPO-treated vehicle. […] Also, the inhibition to PI3K signaling was dose-dependent to Compound B.
(§4) Similar studies were conducted with PI3K inhibitors Compounds C and D. PBMC from MF patients had received ruxolitinib (rux) and MF patient had received Compound A. The cells were treated with Compounds C or D at 0, 20.0, 200.0, 2000.0 nM for 2 hours at 37° C. Cells were treated with TPO for 10 minutes. The percentage of basal p-AKT and p-S6RP levels were normalized to vehicle control and those of TPO-treated were normalized to TPO-treated vehicle control. The PI3K inhibitors Compounds C and D had the chemical names of (S)-2-(1-((9H-purin-6-yl)amino)ethyl)-6-fluoro-3-phenylquinazolin-4(3H)-one and (S)-2,4-diamino-6-(((5-chloro-8-fluoro-4-oxo-3-(pyridine-3-yl)-3,4-dihydroquinazolin-2-yl)(cyclopropyl)methyl)amino)pyrimidine-5-carbonitrile, respectively.

p-AKT Ser473 [2] = test: flow cytometry of AKT phosphorylation in CD34+ progenitor cells from MF patients; type: cell-based, human; settings: 2.0 μM
Description: as §2, §3, §4

SMILES: CC[C@H](Nc1ncnc2[nH]cnc12)c1nc2cccc(F)c2c(=O)n1-c1ccccc1 [Compound B, (S)-2-(1-((9H-purin-6-yl)amino)propyl)-5-fluoro-3-phenylquinazolin-4(3H)-one]
- reduced p-S6 levels (pS6 Ser235/236; 0.1 μM): 13%
- reduced p-S6 levels (pS6 Ser235/236; 1.0 μM): 28%
- reduced p-S6 levels (pS6 Ser235/236; 2.0 μM): 48%
- reduced p-AKT levels (p-AKT Ser473 [1]; 0.1 μM): 11%
- reduced p-AKT levels (p-AKT Ser473 [1]; 1.0 μM): 44%
- reduced p-AKT levels (p-AKT Ser473 [1]; 2.0 μM): 55%
- normalized percentage of TPO-activated S6RP phosphorylation (p-S6RP) (pS6RP Ser235/236; progenitor cells of naïve MF patients): 23% and 45%
- normalized percentage of TPO-activated S6RP phosphorylation (p-S6RP) (pS6RP Ser235/236; progenitor cells of rux-treated MF patients): 21% and 45% and 36% and 20% and 31%
- basal p-S6RP levels (pS6RP Ser235/236; 0.02-2.0 μM, 2 h, no TPO, MF progenitor cells vs untreated, data not shown): reduced levels
- normalized percentage of TPO-activated AKT phosphorylation (p-AKT) (p-AKT Ser473 [2]; then TPO, progenitor cells of rux-treated MF patients, one value per patient, TPO-treated vehicle = 100): 40% and 29% and 35% and 16% (2×)
- normalized percentage of p-AKT (p-AKT Ser473 [2]; progenitor cells from Compound A-treated MF patients, one value per subject, column 0 = 100): 24% and 55% and 30%
